Data taken from PMC12196810, “A Dual Bioassay for Evaluation of Embryotoxicity and Acute Toxicity of Common Solvents and Surfactants in Artemia salina” (Toxics, 2025).
Entries after “also recorded” stand apart in the source; their conditions may differ.

Legend:
Artemia salina nauplii = assay: Brine shrimp lethality test; conditions: for toxicity in the lethality test, in words: 24 and 48 h, 0.05–5% (w/v); for LC50 values: both timepoints (24 and 48 h), summary statement; for LC50: nauplii, 0.05–5.0% (w/v) tested
Method: Artemia salina cysts were hatched in beakers filled with artificial sea water at a salinity of 35 g/L, under continuous aeration, and at a temperature of 25 ± 1 °C for 48 h and a light/dark cycle of 16/8 h. The constant conditions were maintained using a plant growth chamber (Sanyo MLR-351 H, San Diego, CA, USA). After hatching, the Artemia nauplii were separated and brought in aerated fresh artificial sea water. A number of ten nauplii were added in tissue culture plates containing 24 wells (Greiner Bio-One, Kremsmünster, Austria), along with the tested solutions [29, 30]. […] Artificial sea water was used as negative control and sodium lauryl sulfate as positive control. The artificial seawater was prepared according to the instructions provided by the Artemia egg manufacturer, using the supplied salts dissolved in distilled water. A total of 5 L was prepared, aerated, and stored at 4 °C, in dark for no more than two weeks. Before use, the artificial seawater was aerated again. […] The lethality values were calculated and were plotted against the logarithm of concentrations, using the least square fit method to obtain lethality curves. […] The photographs were taken using an ODC 825 Microscope Digital Camera (KERN, Balingen, Germany), with a resolution of 5.1 MP and a 1/2.5″ Aptina CMOS sensor, and processed using Microscope-VIS software 2.0 (KERN Balingen, Germany).

Artemia salina cysts [1] = assay: Hatching inhibition test; format: in vivo; conditions: for IC50 (hatching inhibition): cysts, 0.1–2.5% (w/v) tested; for inhibition of hatching, in words: 0.1–2.5%
Method: SLS was used as positive control and artificial sea water as negative control. The determination was performed according to the protocols described in the literature, with some modifications.
Each sample was performed in duplicate, and artificial sea water was used as control. The hatching process was monitored at 24 and 48 h, and stages 0 and Instar I–III were considered for the quantification. Randomization and blinding were not applied in the assays, as the evaluation of developmental stages is considered objective and unlikely to be influenced by observer bias. The inhibition of the hatching (HI) process was calculated versus the control using the formula presented by Rotini et al.. HI50 was calculated by interpolating on the curves plotted, using the logarithm of concentrations and the hatching inhibition (%) with the least square fit method.

Artemia salina cysts [2] = assay: Hatching and development of nauplii (stage groups A–D); format: in vivo; conditions: for individuals reaching Group D (Instar I–III): 48 h
Method: Each sample was monitored using a stereo-microscope (STMLAB, Monza, Italy) and a bright-field microscope (Euromex, Bscope series, Groningen, The Netherlands) at both moments of determination. After 48 h, a mixture of ethanol and acetic acid in the ratio of 3:1 (v/v) was added to each sample to ensure the preservation for further observations. Depending on the development stage of each sample, the hatching process was divided into four main groups (A–D), and expressed as percents (%). The first group were the unhatched eggs (group A) that remain unchanged between the rehydration operation and the moment of observation; in the second group were the eggs with a broken shell (group B) with evident cracks and modified shape; the third category corresponds to the hatching moment, and it was noted as stage 0 (group C), when the nauplii are pear-shaped or umbrella-shaped and immobile; the fourth stage corresponds to larval stages that comprise the naupliar development stages Instar I–III (group D). All samples were compared to the untreated control to identify non-disruptive concentrations and solvent compatibility for future hatching assays.

[3] = all concentrations (0.1–2.5%), 24 and 48 h
[4] = 48 h, all concentrations (0.05–5%)

| Compound | toxicity in the lethality test, in words (Artemia salina nauplii) | lethality (Artemia salina nauplii; 48 h, concentrations ≥ 1%) [%] | LC50 (Artemia salina nauplii; 24 h exposure) [%] | LC50 (Artemia salina nauplii; 48 h exposure) [%] | inhibition of hatching, in words (Artemia salina cysts [1]; 24 and 48 h) | effect on development, in words (Artemia salina cysts [2]; 0.1–2.5%, 24 and 48 h) | other results |
| --- | --- | --- | --- | --- | --- | --- | --- |
| Cc1ccc(S(=O)(=O)O)cc1.[Na] [PTS, sodium p-toluenesulfonate] | highly toxic | 100 | – | – | – | – | lethality (Artemia salina nauplii; 24 h, highest concentration (5%)): 100%; lethality (Artemia salina nauplii; 48 h, at 0.1%): 90%; LC50 values (Artemia salina nauplii): ≤ 1%; IC50 (hatching inhibition) (Artemia salina cysts [1]; 24 h): ~2.49%; inhibition of hatching (Artemia salina cysts [1]; at 2.5%): strong suppression; individuals reaching Group D (Instar I–III) (Artemia salina cysts [2]; at 1%): over 60%; effect on development, in words (Artemia salina cysts [2]; at 2.5%): Groups A and B became dominant |
| CCN(CC)C(=O)c1cccnc1 [DENA, N,N-diethylnicotinamide] | highly toxic | 100 | 0.22 | 0.05 | – | – | lethality (Artemia salina nauplii; 48 h, at 0.1%): 45%; IC50 (hatching inhibition) (Artemia salina cysts [1]; 24 h): 0.97%; IC50 (hatching inhibition) (Artemia salina cysts [1]; 48 h): 1.10%; inhibition of hatching (Artemia salina cysts [1]; at 2.5%): full inhibition; effect on development, in words (Artemia salina cysts [2]; at 2.5%): development was arrested in Groups A and B |
| Tween 80 | such high mortality at all tested concentrations | – | – | – | – | – | – |
| NC(N)=O [Urea, urea] | moderate toxicity | – | 1.11 | 0.74 | – | – | inhibition of hatching (Artemia salina cysts [1]; [3]): under 50%; effect on development, in words (Artemia salina cysts [2]; at 2.5%): some developmental delay |
| Tween 20 | such high mortality at all tested concentrations | – | – | – | – | – | – |
| C[S+](C)[O-] [DMSO, dimethyl sulfoxide] | moderate-to-low toxicity; also recorded: very low toxicity | – | – | – | very low or no inhibition; also recorded: minimal or no inhibition | very low developmental toxicity | toxicity in the lethality test, in words (Artemia salina nauplii; listed as dimethyl sulfoxide): low toxicity; lethality (maximum) (Artemia salina nauplii; 24 h, at 0.1%): 25%; lethality (peak) (Artemia salina nauplii; 48 h, at 0.5%): 45%; embryos developed fully (Group D) (Artemia salina cysts [2]; at 2.5%): over 80% |
| CN(C)C=O [DMF, dimethylformamide] | moderate toxicity | – | 1.24 | 1.06 | – | – | lethality (Artemia salina nauplii; 48 h, at 1%): up to 80% |
| OCC(O)CO [GLY, glycerol] | very low toxicity | – | – | – | very low or no inhibition; also recorded: minimal or no inhibition | negligible impact on development | toxicity in the lethality test, in words (Artemia salina nauplii; listed as Glycerin): low toxicity; lethality (Artemia salina nauplii; [4]): up to 40% |
| O=S(=O)([O-])c1cccc(S(=O)(=O)[O-])c1.[Na+].[Na+] [SBDS, sodium benzene-1,3-disulfonate] | – | – | – | – | – | low impact on embryonic development | inhibition of hatching (Artemia salina cysts [1]; [3]): under 50% |
| sodium xylenesulfonate [SXS] | – | 100 | 1.01 | 0.79 | – | – | LC50 values (Artemia salina nauplii): ≤ 1%; IC50 (hatching inhibition) (Artemia salina cysts [1]; 24 h): 0.28%; IC50 (hatching inhibition) (Artemia salina cysts [1]; 48 h): 0.41%; inhibition of hatching (Artemia salina cysts [1]; at 2.5%): 100%; effect on development, in words (Artemia salina cysts [2]; at 2.5%): no development beyond Group B occurred |
| CCCCCCCCCCCCOS(=O)(=O)[O-].[Na+] [SLS, sodium lauryl sulfate, reference compound] | highly toxic; also recorded: such high mortality at all tested concentrations | – | – | – | complete or near complete inhibition | complete developmental arrest | lethality (Artemia salina nauplii; 24 h, across all concentrations (0.05–5%)): 100%; lethality (Artemia salina nauplii; [4]): 100% |
| CN(C)C(=O)c1ccccc1 [DMBA, N,N-dimethylbenzamide] | highly toxic | 100 | 0.13 | 0.09 | – | – | lethality (Artemia salina nauplii; 24 h, down to 0.5%): 100%; lethality (Artemia salina nauplii; 48 h, at 0.1%): 75%; LC50 values (Artemia salina nauplii): ≤ 1%; IC50 (hatching inhibition) (Artemia salina cysts [1]; 24 h): 0.27%; inhibition of hatching (Artemia salina cysts [1]; 24 h, high concentrations): exceeding 90%; IC50 (hatching inhibition) (Artemia salina cysts [1]; 48 h): 19.23%; effect on development, in words (Artemia salina cysts [2]; from 0.5% upward): no significant presence in Group D |
| O=S(=O)([O-])c1ccccc1.[Na+] [SBS, sodium benzenesulfonate] | moderate toxicity | 100 | 0.93 | 0.21 | only moderate suppression | moderate developmental delay | – |
| CC(O)CO (stereo not shown) [PDO, propylene glycol] | very low toxicity | – | – | 1.64 | very low or no inhibition; also recorded: minimal or no inhibition | minimal interference | toxicity in the lethality test, in words (Artemia salina nauplii; listed as propylene glycol): low toxicity; lethality (Artemia salina nauplii; 48 h, highest concentration (5%)): 95% |
| CN(C)C(N)=O [DMU, N,N-dimethylurea] | moderate toxicity | 100 | 0.94 | 0.08 | – | – | inhibition of hatching (Artemia salina cysts [1]; [3]): under 50%; individuals reaching Group D (Instar I–III) (Artemia salina cysts [2]; at 0.1%): over 80% |
